Assay results published in patent publication US20260297042A1, “BIARYLAMIDE DERIVATIVES AND THEIR USE AS PKMYT1 INHIBITORS” (CANCER RESEARCH TECHNOLOGY LIMITED, priority 2023, published 2026).
Structures can show the parent of a compound that is named as a salt.

Columns and labels:
Human PKMYT1 = target: T1, Human PKMYT1 (Homo sapiens, UniProt Q99640); test: PKMYT1 biochemical ADP-Glo enzymatic assay; conditions: ADP-Glo
T1 construct: Human PKMYT1 75-362 was cloned as a TEV cleavable 6xHis fusion; 6xHis (TEV cleavable) (cleaved yes); made in house; host or cells: bacterial cells
T1 sequence (Q99640 75-362): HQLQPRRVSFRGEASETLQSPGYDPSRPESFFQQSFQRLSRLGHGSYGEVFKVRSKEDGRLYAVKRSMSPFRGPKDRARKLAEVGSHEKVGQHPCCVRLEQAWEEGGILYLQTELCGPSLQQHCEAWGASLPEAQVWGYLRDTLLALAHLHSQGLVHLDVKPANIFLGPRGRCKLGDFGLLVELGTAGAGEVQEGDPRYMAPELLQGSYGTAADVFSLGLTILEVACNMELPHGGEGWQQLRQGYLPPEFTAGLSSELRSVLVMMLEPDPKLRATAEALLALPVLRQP
Method in brief: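 PKMYT1 75-362 (His-cleaved, bacterial) 15 nM; ATP 500 µM; HEPES pH 7.5, MgCl2, EGTA, Brij-35, 1% DMSO; 60 min, 26 °C; ADP-Glo Max luminescence; 10-pt 3-fold titration → IC50; replicates within 3-fold, r2 >0.9.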

WEE1 = target: T2, WEE1 (Homo sapiens, UniProt P30291); test: Selectivity versus WEE1 assay (ADP-Glo enzymatic assay); assay type: biochemical; conditions: for IC50: ADP-Glo; for PKMYT1 vs. WEE1 selectivity: fold difference in selectivity for PKMYT1 over WEE1
T2 construct: purchased Thermo Fisher PR7373A
Method in brief: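 15 nM WEE1, 30 µM ATP, 50 mM HEPES pH 7.5, 10 mM MgCl2, 1 mM EGTA, 0.01% Brij-35, 1% DMSO; 60 min, 26° C; ADP-Glo luminescence; IC50 from curve fit, replicates within 3-fold, r2 >0.9.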

[1] = 15 nM PKMYT1 kinase domain, 500 µM ATP, 60 minutes at 26° C., banded
[2] = 15 nM WEE1, 60 minutes at 26° C., banded
[3] = banded, ">N" = at least in this band but could be higher
[4] = PKMYT1 kinase domain 15 nM, banded values

T2 sequence (P30291 whole entry): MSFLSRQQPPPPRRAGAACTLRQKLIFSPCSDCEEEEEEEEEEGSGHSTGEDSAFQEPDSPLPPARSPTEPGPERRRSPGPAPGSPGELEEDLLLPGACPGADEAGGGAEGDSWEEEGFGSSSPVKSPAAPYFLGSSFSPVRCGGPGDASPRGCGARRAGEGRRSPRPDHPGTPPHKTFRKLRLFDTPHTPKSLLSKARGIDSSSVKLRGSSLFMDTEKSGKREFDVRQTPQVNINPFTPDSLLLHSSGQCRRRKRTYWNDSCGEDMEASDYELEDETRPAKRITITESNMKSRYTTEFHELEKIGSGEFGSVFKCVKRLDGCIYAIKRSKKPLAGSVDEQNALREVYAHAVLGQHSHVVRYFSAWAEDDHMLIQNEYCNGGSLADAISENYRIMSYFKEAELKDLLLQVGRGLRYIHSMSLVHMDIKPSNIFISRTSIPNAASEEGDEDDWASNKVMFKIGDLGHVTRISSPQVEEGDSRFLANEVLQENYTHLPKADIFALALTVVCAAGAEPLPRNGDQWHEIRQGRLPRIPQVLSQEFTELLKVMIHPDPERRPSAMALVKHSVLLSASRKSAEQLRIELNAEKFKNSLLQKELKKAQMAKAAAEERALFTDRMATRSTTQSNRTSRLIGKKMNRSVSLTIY

Row | Compound | IC50 (Human PKMYT1; [1]) [nM] | IC50 (WEE1; [2]) [nM] | PKMYT1 vs. WEE1 selectivity (WEE1; [3]) | IC50 (Human PKMYT1; [4]) [nM] | IC50 (WEE1; WEE1 15 nM, banded values) [nM] | PKMYT1 vs. WEE1 selectivity (WEE1; banded)
1 | Cc1ccc(O)c(C)c1NC(=O)c1cnc(Nc2ccn(CC3CCOC3)n2)s1 (stereo not drawn) [BAA-032, N-(3-hydroxy-2,6-dimethyl-phenyl)-2-[[1-(tetrahydrofuran-3-ylmethyl)pyrazol-3-yl]amino]thiazole-5-carboxamide] | 50 to 1000 | 1000 to 11000 | W (10-<100 fold) |  |  | 
2 | Cc1cn(CC(=O)N(C)CCS(C)(=O)=O)nc1Nc1ncc(C(=O)Nc2c(C)ccc(O)c2C)s1 [BAA-522, N-(3-hydroxy-2,6-dimethylphenyl)-2-((4-methyl-1-(2-(methyl(2-(methylsulfonyl)ethyl)amino)-2-oxoethyl)-1H-pyrazol-3-yl)amino)thiazole-5-carboxamide] |  |  |  | < 50 | 1000 to 11000 | X (100-<1000 fold)
3 | Cc1ccc(O)c(C)c1NC(=O)c1cnc(Nc2ccn(CCCO)n2)s1 [BAA-002, N-(3-Hydroxy-2,6-dimethyl-phenyl)-2-[[1-(3-hydroxypropyl)pyrazol-3-yl]amino]thiazole-5-carboxamide] | < 50 | 1000 to 11000 | W (10-<100 fold) |  |  | 
4 | COC(=O)CCC(=O)N1CC[C@@H](n2ccc(Nc3ncc(C(=O)Nc4c(C)ccc(O)c4C)s3)n2)C1 [BAA-091] | 50 to 1000 | > 11000 | >X (100-<1000 fold) |  |  | 
5 | Cc1ccc(O)c(C)c1NC(=O)c1cnc(Nc2ccn([C@H]3CCNC3)n2)s1 [BAA-057, N-(3-hydroxy-2,6-dimethyl-phenyl)-2-[1-[(3S)-pyrrolidin-3-yl]pyrazol-3-yllamino]thiazole-5-carboxamide (hydrochloride)] | 1000 to 11000 | > 11000 | >W (10-<100 fold) |  |  | 
6 | CCCCn1ccc(Nc2ncc(C(=O)Nc3c(C)ccc(O)c3C)s2)n1 [BAA-012, 2-[(1-butylpyrazol-3-yl)amino]-N-(3-hydroxy-2,6-dimethyl-phenyl)thiazole-5-carboxamide] | 50 to 1000 | 1000 to 11000 | W (10-<100 fold) |  |  | 
7 | Cc1ccc(O)c(C)c1NC(=O)c1cnc(Nc2ccc(S(C)(=O)=O)cc2)s1 [BAA-275, N-(3-Hydroxy-2,6-dimethylphenyl)-2-((4-(methylsulfonyl)phenyl)amino)thiazole-5-carboxamide] | < 50 | > 11000 | X (100-<1000 fold) |  |  | 
8 | Cc1ccc(O)c(C)c1NC(=O)c1cnc(Nc2cc(N3CCNCC3)ncn2)s1 [BAA-575, N-(3-Hydroxy-2,6-dimethylphenyl)-2-((6-(piperazin-1-yl)pyrimidin-4-yl)amino)thiazole-5-carboxamide] |  |  |  | < 50 | 50 to 1000 | W (10-<100 fold)
9 | Cc1ccc(O)c(C)c1NC(=O)c1cnc(Nc2ccn(CC(=O)N3CC[C@@H](O)C3)n2)s1 [BAA-139, N-(3-hydroxy-2,6-dimethyl-phenyl)-2-[[1-[2-[(3R)-3-hydroxypyrrolidin-1-yl]-2-oxo-ethyl]pyrazol-3-yl]amino]thiazole-5-carboxamide] | < 50 | > 11000 | Y (1000-5000 fold) |  |  | 
10 | CCC(=O)NCCCNc1ncc(C(=O)Nc2c(C)ccc(O)c2C)s1 [BAA-076, N-(3-hydroxy-2,6-dimethyl-phenyl)-2-[3-(propanoylamino)propylamino]thiazole-5-carboxamide] | 1000 to 11000 | > 11000 | >W (10-<100 fold) |  |  | 
11 | Cc1ccc(O)c(C)c1NC(=O)c1cnc(Nc2ccn(CC(=O)N3C[C@H]4C[C@@H]3CN4)n2)s1 [BAA-223, 2-((1-(2-((1R,4R)-2,5-diazabicyclo[2.2.1]heptan-2-yl)-2-oxoethyl)-1H-pyrazol-3-yl)amino)-N-(3-hydroxy-2,6-dimethylphenyl)thiazole-5-carboxamide] | < 50 | > 11000 | X (100-<1000 fold) |  |  | 
12 | Cc1ccc(O)c(C)c1NC(=O)c1cnc(Nc2ccn(CC(=O)N3CCC4(CC3)CCN(C(=O)OC(C)(C)C)C4)n2)s1 [BAA-155, tert-butyl 8-[2-[3-[5-[(3-hydroxy-2,6-dimethyl-phenyl)carbamoyl]thiazol-2-ylamino]pyrazol-1-yl]acetyl]-2,8-diazaspiro[4.5]decane-2-carboxylate] | < 50 | > 11000 | X (100-<1000 fold) |  |  | 
13 | Cc1c(O)ccc(Br)c1NC(=O)c1cnc(Nc2ccn(CC(=O)N3CCCC3)n2)s1 [BAA-519, N-(6-Bromo-3-hydroxy-2-methyl-phenyl)-2-[[1-(2-oxo-2-pyrrolidin-1-yl-ethyl)pyrazol-3-yl]amino]thiazole-5-carboxamide] |  |  |  | < 50 | > 11000 | X (100-<1000 fold)
14 | Cc1ccc(O)c(C)c1NC(=O)c1cnc(Nc2ccn(CC(=O)NCC3CCN(C(=O)OC(C)(C)C)CC3)n2)s1 [BAA-157] | 50 to 1000 | > 11000 | X (100-<1000 fold) |  |  | 
15 | Cc1ccc(O)c(C)c1NC(=O)c1cnc(Nc2ccn(CC(=O)NC3CCCCC3)n2)s1 [BAA-193] | < 50 | > 11000 | Y (1000-5000 fold) |  |  | 
16 | Cc1ccc(O)c(C)c1NC(=O)c1cnc(Nc2ccn(CC(=O)NCC3CCNCC3)n2)s1 [BAA-226] | < 50 | > 11000 | X (100-<1000 fold) |  |  | 
17 | Cc1ccc(O)c(C)c1NC(=O)c1cnc(Nc2ccn(CC(=O)N3CC4(C3)CN(C(=O)OC(C)(C)C)C4)n2)s1 [BAA-144, tert-butyl 6-[2-[3-[[5-[(3-hydroxy-2,6-dimethyl-phenyl)carbamoyl]thiazol-2-yl]amino]pyrazol-1-yl]acetyl]-2,6-diazaspiro[3.3]heptane-2-carboxylate] | < 50 | 1000 to 11000 | X (100-<1000 fold) |  |  | 
18 | Cc1ccc(O)c(C)c1NC(=O)c1cnc(Nc2cc(C)n(CC(=O)O)n2)s1 [BAA-124, 2-[3-[[5-[(3-hydroxy-2,6-dimethyl-phenyl)carbamoyl]thiazol-2-yl]amino]-5-methyl-pyrazol-1-yl]acetic acid] | < 50 | > 11000 | X (100-<1000 fold) |  |  | 
19 | Cc1ccc(O)c(C)c1NC(=O)c1cnc(Nc2cccc(S(C)(=O)=O)c2)s1 [BAA-276, N-(3-hydroxy-2,6-dimethylphenyl)-2-((3-(methylsulfonyl)phenyl)amino)thiazole-5-carboxamide] | < 50 | > 11000 | Y (1000-5000 fold) |  |  | 
20 | Cc1ccc(O)c(C)c1NC(=O)c1cnc(Nc2ccn(CC(=O)NCCN3CCCC3)n2)s1 [BAA-167] | 50 to 1000 | > 11000 | X (100-<1000 fold) |  |  | 
21 | Cc1ccc(O)c(C)c1NC(=O)c1cnc(Nc2ccn([C@@H]3CCN(C(=O)Cc4cccs4)C3)n2)s1 [BAA-098] | 50 to 1000 | > 11000 | >X (100-<1000 fold) |  |  | 
22 | Cc1ccc(O)c(C)c1NC(=O)c1cnc(Nc2ccn([C@@H]3CCN(C(=O)Cc4ccncc4)C3)n2)s1 [BAA-104, N-(3-hydroxy-2,6-dimethyl-phenyl)-2-[1-[(3R)-1-[2-(4-pyridyl)acetyl]pyrrolidin-3-yl]pyrazol-3-ylamino]thiazole-5-carboxamide] | 50 to 1000 | > 11000 | >X (100-<1000 fold) |  |  | 
23 | Cc1ccc(O)c(C)c1NC(=O)c1cnc(NCc2ccccc2)s1 [BAA-344, 2-(benzylamino)-N-(3-hydroxy-2,6-dimethylphenyl) thiazole-5-carboxamide] | 50 to 1000 | > 11000 | Y (1000-5000 fold) |  |  | 
24 | Cc1ccc(O)c(C)c1NC(=O)c1cnc(Nc2ccn([C@@H]3CCN(C(=O)Cc4ccc(F)cc4)C3)n2)s1 [BAA-093] | 50 to 1000 | > 11000 | >X (100-<1000 fold) |  |  | 
